# Columns and labels:
# Hsp90 [1] = target: T1, Hsp90 (Homo sapiens, UniProt P07900); settings: cited from earlier work
# Hsp90 [2] = target: T1, Hsp90; settings: cited from earlier work; remark: listed apart in the source
# [3] = system: HER2 over-expressing SKBr3 breast cancer cells; experiment: cell growth inhibition assay; format: cell-based; settings: Homo sapiens, SK-BR-3, 72 h, read-out: IC50 SKBr3
# Raf-1 = experiment: Western blot assay, client protein degradation; format: cell-based
# PRAS40 = experiment: Western blot assay, client protein degradation; format: cell-based
# Hsp90 [4] = target: T1, Hsp90; experiment: fluorescent polarization
# [5] = read-out: IC50 cell growth inhibition; cited from earlier work
SMILES,IC50 [3],effect on Raf-1 degradation (Raf-1),effect on PRAS40 degradation (PRAS40),other results
O=S(=O)(Nc1ccc(O)c(-c2c(O)ccc3ccccc23)c1)c1ccccc1 [Compound 1],,,,activity in malachite green assay (Hsp90 [1]): low micromolar activity; activity in FP assay (Hsp90 [2]): low micromolar activity
O=S(=O)(Nc1ccc(O)c(-c2ccccc2O)c1)c1cc(Cl)ccc1Cl [Compound 9a],,,,fold less activity than 2 in FP assay (Hsp90 [4]; relative to compound 2): about 20 fold
O=S(=O)(Nc1ccc(O)c(-c2c(O)ccc3ccccc23)c1)c1cc(Cl)ccc1Cl [Compound 2],6.5 µM,neither had any effect,neither had any effect,IC50 [5]: 29 µM

# More lines, main results first:
IC50 [3],SMILES,effect on Raf-1 degradation (Raf-1),effect on PRAS40 degradation (PRAS40),other results
6 µM,COc1ccc(O)c(O)c1-c1cc(NS(=O)(=O)c2cc(Cl)ccc2Cl)ccc1N [Compound 13],neither had any effect,neither had any effect,"IC50 FP (Hsp90 [4]; mean of 2 independent determinations, maximum concentration tested 50 µM): sub-micromolar"
4.4 µM,O=S(=O)(Nc1ccc(O)c(-c2c(O)ccc3c2OCO3)c1)c1cc(Cl)ccc1Cl [Compound 17],,,

# Source: paper PMC2653417 (Bioorganic & medicinal chemistry letters, 2008)
